Measurements taken from ChEMBL document CHEMBL3769391, “Identification of a new cyathane diterpene that induces mitochondrial and autophagy-dependent apoptosis and shows a potent in vivo anti-colorectal cancer activity” (Eur J Med Chem, 2016).
The source made the active and inactive calls. The calls are words filed in the database; no cut-off is given here.

Legend:
Mus musculus = experiment: Hepatotoxicity in immune deficient nude BALB/c mouse xenografted with human HCT116 cells assessed as changes in albumin level in serum at 5 and 10 mg/kg, ip administered every other day for 2 weeks measured during compound dosing; type: toxicity, organism-based, HCT-116; details: in vivo, 336 h
HCT-116 [1] = experiment: Induction of apoptosis in ATG5 scramble human HCT116 cells assessed as early apoptotic cells at 5 uM after 24 hrs by Annexin V-FITC/propidium iodide staining based flow cytometry (reference value: 1.99%); type: functional
HCT-116 [2] = experiment: Induction of autophagy in human HCT116 cells assessed as ATG5-ATG12 complex at 5 uM after 4 to 12 hrs by Western blot analysis; type: functional, cell-based
HCT-116 [3] = experiment: Induction of apoptosis in human HCT116 cells assessed as changes in p53 expression at 5 uM after 6 to 24 hrs by Western blot analysis; type: functional, cell-based
HCT-116 [4] = experiment: Induction of apoptosis in human HCT116 cells assessed as early apoptotic cells at 10 uM after 12 hrs by Annexin V-FITC/propidium iodide staining based flow cytometry (reference value: 1.13%); type: functional
HCT-116 [5] = experiment: Induction of apoptosis in ATG5 scramble human HCT116 cells assessed as late apoptotic cells at 5 uM after 24 hrs by Annexin V-FITC/propidium iodide staining based flow cytometry (reference value: 3.35%); type: functional
HCT-116 [6] = experiment: Induction of apoptosis in human HCT116 cells assessed as early apoptotic cells at 7.5 uM after 24 hrs by Annexin V-FITC/propidium iodide staining based flow cytometry (reference value: 1.06%); type: functional
HCT-116 [7] = experiment: Induction of apoptosis in human HCT116 cells assessed as decrease in Bcl-2 expression at 5 uM after 6 to 24 hrs by Western blot analysis; type: functional, cell-based
[8] = Antitumor activity against human HCT116 cells xenografted in immune deficient nude BALB/c mouse assessed as tumor growth inhibition at 5 mg/kg, ip administered every other day for 2 weeks measured after 2 weeks post last dose relative to control; type: functional; details: HCT-116, ip, 336 h, read-out: TGI
HCT-116 [9] = experiment: Induction of apoptosis in Bax deficient human HCT116 cells assessed as early apoptotic cells at 15 uM after 24 hrs by Annexin V-FITC/propidium iodide staining based flow cytometry (reference value: 0.85 to 1.13%); type: functional
HCT-116 [10] = experiment: Induction of apoptosis in human HCT116 cells assessed as increase in BimEL expression at 5 uM after 6 to 24 hrs by Western blot analysis; type: functional, cell-based
HCT-116 [11] = experiment: Induction of apoptosis in human HCT116 cells assessed as necrotic cells at 5 uM after 24 hrs by Annexin V-FITC/propidium iodide staining based flow cytometry in presence of NAC (reference value: 0.44%); type: functional
HCT-116 [12] = experiment: Induction of apoptosis in Bax deficient human HCT116 cells assessed as early apoptotic cells at 15 uM after 24 hrs by Annexin V-FITC/propidium iodide staining based flow cytometry in presence of NAC (reference value: 0.85%); type: functional
HCT-116 [13] = experiment: Induction of apoptosis in Bax deficient human HCT116 cells assessed as early apoptotic cells at 20 uM after 24 hrs by Annexin V-FITC/propidium iodide staining based flow cytometry (reference value: 1.13%); type: functional
HCT-116 [14] = experiment: Induction of apoptosis in human HCT116 cells assessed as caspase activation at 5 uM after 12 hrs by CaspACEFITC-VAD-FMK staining based flow cytometry (reference value: 7.72%); type: functional

## CO[C@@H]1C(C=O)=CC[C@@H]2C3=C(C(C)C)CC[C@]3(C)CC[C@@]2(C)[C@H]1O
Mus musculus
  Activity: Non-toxic
HCT-116 [1]
  Activity: 15.2%
HCT-116 [2]
  Activity: Active
HCT-116 [3]
  Activity: inactive
HCT-116 [4]
  Activity: 30.19%
HCT-116 [5]
  Activity: 5.53%
HCT-116 [6]
  Activity: 51.38%
HCT-116 [7]
  Activity: Active
[8]
  inhibition in vivo at 5 mg/kg: 26%
HCT-116 [9]
  Activity: 47.04%
HCT-116 [10]
  Activity: Active
HCT-116 [11]
  Activity: 0.81%
HCT-116 [12]
  Activity: 1.42%
HCT-116 [13]
  Activity: 56.15%
HCT-116 [14]
  Activity: 66.85%
